Results published in patent publication US8338565B2, “Macrocyclic compounds for inhibition of tumor necrosis factor alpha” (Ensemble Therapeutics Corporation, priority 2008, dated 2012).
Blank lines part the entries; values can stand above or below the compound they belong to. Numbered stars: 1 amine (or outer) side, 2 acyl side, 3 side chain; on linkers, the order of the positions; unused ones are H or OH. Bridge positions count the residues as written; N and C are the ends. Square brackets hold non-standard residues; d marks the D form. Peptide text beside a SMILES is read from it. Phe(4-CF3) = N[C@@H](Cc1ccc(C(F)(F)F)cc1)C(=O)O; dBip = N[C@H](Cc1ccc(-c2ccccc2)cc1)C(=O)O; dPhe(4-NH2) = Nc1ccc(C[C@@H](N)C(=O)O)cc1; Phe(4-NH2) = Nc1ccc(C[C@H](N)C(=O)O)cc1; d(hPhe) = N[C@H](CCc1ccccc1)C(=O)O; 2Thi = N[C@@H](Cc1cccs1)C(=O)O; Suc = O=C(CCC(=O)[*:2])[*:1]

What was measured:
[1] = target: T1, TNFα / TNFα receptor (TNFα R1/Fc) (Homo sapiens, UniProt P01375); assay: Inhibition of binding of TNFα to the TNFα receptor (plate ELISA competition); details: Table 2; read-out: Activity (IC50, inhibition of TNFα binding to TNFα R1/Fc)
T1 construct: purchased R&D Systems
T1 sequence (P01375 77-233 limits assumed, species assumed): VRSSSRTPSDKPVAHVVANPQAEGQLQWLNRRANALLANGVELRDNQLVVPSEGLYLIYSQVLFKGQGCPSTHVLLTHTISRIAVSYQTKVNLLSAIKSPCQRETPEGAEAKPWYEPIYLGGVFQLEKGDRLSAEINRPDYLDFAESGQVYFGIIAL
How it was run: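 Compound dilutions were preincubated 30 min at RT with 8.33 nM TNFα R1/Fc in PBST with 2% DMSO, then added to wells coated with 15 nM TNFα for 30 min. Bound receptor was detected with HRP anti-human Fc and TMB, read as A450.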

[2] = tested on: TNF-α (degradation of IkB in HeLa cells or A431 cells); assay: Human cell-based assay: inhibition of TNF-α induced degradation of IkB; details: HeLa or A431 cells; for inhibition at 5 µM: 5 μM compound, read-out: Inhibition at Various Compound Concentrations, 5 μM; for inhibition at 10 µM: 10 μM compound, read-out: Inhibition at Various Compound Concentrations, 10 μM
[3] = tested on: rat paw edema model; assay: Rat paw edema model (carrageenan), anti-inflammatory activity; type: in vivo, Sprague-Dawley (SD) rats
Method: Compounds 3, 4, 10 and 202 were tested in a rat paw edema model to determine anti-inflammatory activity. Seven groups (one for Vehicle A [15 mL PEG400, 3 mL Graves Grain alcohol (190 proof), 1.8 mL dimethylacetamide and 10.2 mL deionized water] alone as a negative control, one for Vehicle B [0.1M NaHCO3] alone as a negative control, one for each of the four test compounds dissolved in Vehicle A, and one for indomethacin dissolved in Vehicle B as a positive control), each group containing six Sprague-Dawley (SD) rats (180-200 g) randomized by weight. Initial paw volumes were measured by placing the right hind limb of the rat up to the top of the hock in a beaker of water sitting on a scale that had been tared to zero and recording the readout.
Rats were pre-treated with either i) one of the test compounds, or ii) a positive or negative control. Vehicle A alone and test compound dissolved in Vehicle A (Compound 3-1.0 mg/kg; Compound 4-0.4 mg/kg; Compound 10-0.5 mg/kg; Compound 202-0.3 mg/kg) were administered by intravenous injection. Vehicle B alone and indomethacin (5 mg/kg in 0.1M NaHCO3) was administered by intraperitoneal injection. Thirty minutes after this pretreatment, rats were anesthetized and injected with 0.1 mL of carrageenan (10 mg/mL in water) in the subplantar region of the right hind foot using a ½ inch 26 gauge needle attached to a 1 cc syringe.
At 2, 4 and 6 hours post-carrageenan injection, the right hind foot of each rat was measured for paw volume as described above.
We next investigated the effect of varying intravenous doses of Compound 202 (0.05, 0.10, 0.30, and 1.00 mg/kg) in the same model using the same protocol (6 rats per group). […] We also investigated the affect of oral dosing (10 mg/kg) of Compound 202 in the same model. For oral dosing, a 2.5 mg/mL suspension of Compound 202 was prepared in Vehicle A. Rats were orally administered 4 mL/kg of that suspension.

[4] = Table 4, 1 mg/kg IV, 2 h post-carrageenan
[5] = Table 4, 1 mg/kg IV, 4 h post-carrageenan
[6] = Table 4, 1 mg/kg IV, 6 h post-carrageenan
[7] = Table 8, 1 mg/kg IV, 2 h post-carrageenan
[8] = Table 8, 1 mg/kg IV, 4 h post-carrageenan
[9] = Table 8, 1 mg/kg IV, 6 h post-carrageenan

Structure (SMILES): O=C1CCC(=O)N[C@H](CCc2ccccc2)C(=O)N[C@@H](Cc2ccc(C(F)(F)F)cc2)C(=O)N[C@H](Cc2ccccc2)C(=O)N[C@H](C(=O)N[C@@H](Cc2ccccc2)C(=O)O)Cc2ccc(cc2)N1 [Compound 11] ([d(hPhe)][Phe(4-CF3)][dF][Phe(4-NH2)]F-OH; linker N-4 via Suc)
IC50 [1]: < 10 µM | inhibition at 5 µM [2]: 10 to 50% | inhibition at 10 µM [2]: 50 to 80% | Change in Paw Volume [3, 4]: 1.37 ± 0.16 mL | Change in Paw Volume [3, 5]: 1.43 ± 0.13 mL | Change in Paw Volume [3, 6]: 1.45 ± 0.08 mL

Structure (SMILES): O=C1CCC(=O)N[C@@H](Cc2cccs2)C(=O)N[C@H](Cc2ccc(-c3ccccc3)cc2)C(=O)N[C@@H](Cc2ccccc2)C(=O)N[C@H](C(=O)O)Cc2ccc(cc2)N1 [Compound 493] ([2Thi][dBip]F[Phe(4-NH2)]-OH; linker N-4 via Suc)
IC50 [1]: < 10 µM | Change in Paw Volume [3, 7]: 1.04 ± 0.15 mL | Change in Paw Volume [3, 8]: 1.12 ± 0.10 mL | Change in Paw Volume [3, 9]: 1.03 ± 0.15 mL

Structure (SMILES): COc1ccc2c(c1)c(CC(=O)O)c(C)n2C(=O)c1ccc(Cl)cc1 [indomethacin, reference compound]
Change in Paw Volume ([3]; Table 3, positive control 5 mg/kg IP, 2 h post-carrageenan): 0.61 ± 0.10 mL | Change in Paw Volume ([3]; Table 3, positive control 5 mg/kg IP, 4 h post-carrageenan): 0.92 ± 0.12 mL | Change in Paw Volume ([3]; Table 3, positive control 5 mg/kg IP, 6 h post-carrageenan): 0.99 ± 0.10 mL | Change in Paw Volume ([3]; Table 4, positive control IP (5 mg/kg), 2 h post-carrageenan): 0.61 ± 0.08 mL | Change in Paw Volume ([3]; Table 4, positive control IP (5 mg/kg), 4 h post-carrageenan): 0.82 ± 0.05 mL | Change in Paw Volume ([3]; Table 4, positive control IP (5 mg/kg), 6 h post-carrageenan): 0.90 ± 0.11 mL | Change in Paw Volume ([3]; Table 5, positive control IP (5 mg/kg), 2 h post-carrageenan): 0.82 ± 0.08 mL | Change in Paw Volume ([3]; Table 5, positive control IP (5 mg/kg), 4 h post-carrageenan): 0.94 ± 0.10 mL | Change in Paw Volume ([3]; Table 5, positive control IP (5 mg/kg), 6 h post-carrageenan): 0.87 ± 0.11 mL | Change in Paw Volume ([3]; Table 6, positive control IP (5 mg/kg), 2 h post-carrageenan): 0.63 ± 0.08 mL | Change in Paw Volume ([3]; Table 6, positive control IP (5 mg/kg), 4 h post-carrageenan): 0.79 ± 0.17 mL | Change in Paw Volume ([3]; Table 6, positive control IP (5 mg/kg), 6 h post-carrageenan): 0.82 ± 0.21 mL | Change in Paw Volume ([3]; Table 7, positive control IP (5 mg/kg), 2 h post-carrageenan): 0.75 ± 0.14 mL | Change in Paw Volume ([3]; Table 7, positive control IP (5 mg/kg), 4 h post-carrageenan): 1.02 ± 0.09 mL | Change in Paw Volume ([3]; Table 7, positive control IP (5 mg/kg), 6 h post-carrageenan): 1.07 ± 0.08 mL | Change in Paw Volume ([3]; Table 8, positive control IP (5 mg/kg), 2 h post-carrageenan): 0.76 ± 0.13 mL | Change in Paw Volume ([3]; Table 8, positive control IP (5 mg/kg), 4 h post-carrageenan): 0.92 ± 0.09 mL | Change in Paw Volume ([3]; Table 8, positive control IP (5 mg/kg), 6 h post-carrageenan): 0.74 ± 0.08 mL | Change in Paw Volume ([3]; Table 9, positive control IP (5 mg/kg), 2 h post-carrageenan): 0.75 ± 0.14 mL | Change in Paw Volume ([3]; Table 9, positive control IP (5 mg/kg), 4 h post-carrageenan): 1.02 ± 0.09 mL | Change in Paw Volume ([3]; Table 9, positive control IP (5 mg/kg), 6 h post-carrageenan): 1.07 ± 0.08 mL | Change in Paw Volume ([3]; Table 10, positive control IP (5 mg/kg), 2 h post-carrageenan): 0.63 ± 0.08 mL | Change in Paw Volume ([3]; Table 10, positive control IP (5 mg/kg), 4 h post-carrageenan): 0.79 ± 0.17 mL | Change in Paw Volume ([3]; Table 10, positive control IP (5 mg/kg), 6 h post-carrageenan): 0.82 ± 0.21 mL

Continued, in another order:

IC50 [1]: < 10 µM
Structure (SMILES): O=C(O)CCCNC(=O)[C@@H]1Cc2ccc(cc2)OCC(=O)N[C@@H](Cc2cccs2)C(=O)N[C@@H](Cc2ccc(-c3ccccc3)cc2)C(=O)N[C@@H](Cc2ccccc2)C(=O)N1 [Compound 342]
inhibition at 5 µM [2]: < 10% | inhibition at 10 µM [2]: 10 to 50% | Change in Paw Volume [3, 4]: 1.36 ± 0.10 mL | Change in Paw Volume [3, 5]: 1.49 ± 0.20 mL | Change in Paw Volume [3, 6]: 1.51 ± 0.15 mL

IC50 [1]: > 100 µM
Structure (SMILES): O=C(O)[C@@H]1Cc2ccc(cc2)NC(=O)[C@H](O)[C@@H](O)C(=O)N[C@@H](Cc2cccs2)C(=O)N[C@@H](Cc2ccc(-c3ccccc3)cc2)C(=O)N[C@@H](Cc2ccccc2)C(=O)N1 [Compound 273]
inhibition at 5 µM [2]: 10 to 50% | inhibition at 10 µM [2]: < 10% | Change in Paw Volume ([3]; Table 7, 1 mg/kg IV, 2 h post-carrageenan): 1.13 ± 0.09 mL | Change in Paw Volume ([3]; Table 7, 1 mg/kg IV, 4 h post-carrageenan): 1.52 ± 0.12 mL | Change in Paw Volume ([3]; Table 7, 1 mg/kg IV, 6 h post-carrageenan): 1.59 ± 0.16 mL

IC50 [1]: 10 to 30 µM
Structure (SMILES): O=C1CCC(=O)N[C@@H](Cc2cccs2)C(=O)N[C@H](Cc2ccc(-c3ccccc3)cc2)C(=O)N[C@@H](Cc2ccccc2)C(=O)N[C@@H](C(=O)O)Cc2ccc(cc2)N1 [Compound 500] ([2Thi][dBip]F[dPhe(4-NH2)]-OH; linker N-4 via Suc)
Change in Paw Volume [3, 7]: 0.98 ± 0.24 mL | Change in Paw Volume [3, 8]: 1.07 ± 0.21 mL | Change in Paw Volume [3, 9]: 0.98 ± 0.14 mL

IC50 [1]: < 10 µM
Structure (SMILES): O=C1COc2ccc(cc2)C[C@@H](C(=O)O)NC(=O)[C@H](CCc2ccccc2)NC(=O)[C@@H](Cc2ccc(-c3ccccc3)cc2)NC(=O)[C@H](Cc2ccncc2)N1 [Compound 506]
Change in Paw Volume ([3]; Table 5, 1 mg/kg IV, 2 h post-carrageenan): 0.74 ± 0.18 mL | Change in Paw Volume ([3]; Table 5, 1 mg/kg IV, 4 h post-carrageenan): 1.05 ± 0.17 mL | Change in Paw Volume ([3]; Table 5, 1 mg/kg IV, 6 h post-carrageenan): 0.86 ± 0.15 mL
